Details of data set [1]: species or system Göttingen mini-pigs. Particulars: minipig, in vivo, iv, 10 nmol/kg. Here is the method:
Assay (II): Minipig i.v. PK
Six male Göttingen mini-pigs weighing approximately 20 to 23 kg from Ellegaard Gottingen Minipigs A/S, Denmark were comprised in the study. The mini-pigs were dosed intra venous (i.v.) via a central catheter in vena cava caudalis. The catheter was flushed with 10 ml saline post administration. Blood was sampled from the central catheter. Test substances were dissolved in a vehicle consisting of in 50 mM sodium phosphate, […] sodium chloride, 0.05% tween80 pH 7.4. The pigs were dosed with 10 nmol of gastrin compound (such as gastrin derivative)/kg body weight or 10 nmol Gastrin-17/kg body weight. Blood samples were taken at the following time points: pre-dose, 5 minutes, 15 minutes, 30 minutes, 45 minutes, 1, 1.5, 2, 3, 4, 6, 8, 10, 24, 48, 72, 96, 120, 168, 192 and 216 hours post dosing. The blood samples were collected into test tubes containing EDTA buffer for stabilization and kept on ice for max. 20 minutes before centrifugation. The centrifugation procedure to separate plasma may be: 4° C., approx. 2500 g for 10 minutes. Plasma was collected and immediately transferred to Micronic tubes stored at −20° C. until assayed.
Blood samples were analysed for gastrin compound content using a competitive scintillation proximity assay (SPA). The assay is a radiometric-ligand binding assay using […]™ imaging particles. The assay involves a rabbit anti-human gastrin-17(2-17) polyclonal antibody, wherein the human gastrin-17(2-17) against which said antibody raised contained position 2-17 of SEQ ID NO:2 (said antibody is obtainable from professor Jens Rehfeld, Rigshospitalet, Copenhagen, Denmark), [^125I]-Tyr^12 gastrin I (human) (which has the sequence pG1u-[…][^125I]Tyr-Gly-Trp-Met-Asp-Phe-NH2, item no. NEX176010UC, […]® Waltham, Massachusetts, USA) and PS […]™ particles coated with anti-rabbit Ig antibodies. Gastrin compounds (in calibrators, controls or unknown samples) and [^125I]-Tyr12 human gastrin I will compete for the binding to the polyclonal rabbit anti human gastrin I antibody. The anti-rabbit Ig antibodies on the […]™ particles recognize the anti-gastrin antibodies bringing the [^125I-] gastrin molecules in close proximity to the […]™ particles resulting in light emission from the particles. The […]™ will image the emitted light that is reversely correlated to the amount of gastrin compound present in the sample. 5μL sample, calibrator or control was applied to white 384-well polystyrene plates followed by 10μantibody working solution (rabbit-anti-Gastrin serum from rabbit 2609 batch 11/10-73), 10μl tracer working solution and 10μl bead working solution. […] After exchanging the seal against a new one, the light emission was detected with a […]™ Multimodality Imaging System. […]
The concentration-response relationship was calculated using a four-parameter logistic model using non linear regression analysis and the output of the assay was the concentration of the respective gastrin analogue in pM. The in vivo plasma half life was determined by non-compartmental analysis (NCA) of plasma concentration-time profiles from each animal. NCA may be carried out as follows: Plasma concentration-time profiles were analyzed by non-compartmental pharmacokinetics analysis (NCA) using WinNonlin (Pharsight Inc., Mountain View, Calif., USA); NCA was performed using the individual plasma concentration-time profiles from each animal.
Half life of gastrin compounds was determined according to Assay (II).

Data set [2] deals with T1, CCK2 receptor (gastrin receptor) (Homo sapiens, UniProt P32239).
T1 construct: expressed in transfected cells; host or cells: NIH 3T3/CCK2R cells (mouse fibroblast line overexpressing CCK2R, kept under G418 selection)
T1 sequence (P32239 1-447): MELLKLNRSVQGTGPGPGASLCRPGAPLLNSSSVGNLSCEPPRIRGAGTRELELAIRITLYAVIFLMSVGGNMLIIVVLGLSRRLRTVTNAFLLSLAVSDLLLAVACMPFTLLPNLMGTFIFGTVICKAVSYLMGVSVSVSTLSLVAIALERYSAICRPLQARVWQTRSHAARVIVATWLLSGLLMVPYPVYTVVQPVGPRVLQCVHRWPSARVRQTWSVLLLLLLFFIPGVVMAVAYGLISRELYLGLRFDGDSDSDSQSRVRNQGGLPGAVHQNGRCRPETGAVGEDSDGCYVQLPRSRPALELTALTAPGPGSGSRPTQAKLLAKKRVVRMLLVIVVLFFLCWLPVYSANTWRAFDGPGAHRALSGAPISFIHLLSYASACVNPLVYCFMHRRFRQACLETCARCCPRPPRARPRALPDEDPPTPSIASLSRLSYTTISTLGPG
In kind it is cell-based. Particulars: [Leu15] Gastrin-17 = 100, NIH 3T3/CCK2R cells, calcium mobilization. As for the experimental part:
Assay (I): In Vitro Receptor Potency In vitro receptor potency was measured using a CCK2 receptor mediated calcium mobilization assay. The CCK2 receptor (gastrin receptor) signals via the heterotrimeric G-protein, Gq, to activate phospholipase C(PLC). This leads to generation of inositol-1,4,5-trisphosphate (IP3) that releases calcium from intracellular stores. The primary rise in cytosolic calcium concentration is followed by activation of calcium dependent calcium channels in the plasma membrane allowing extracellular calcium to enter the cell. The rise in calcium concentration is transient, but it can be measured in situ by loading the cells with a calcium dependent fluorescent probe and monitored by the use of 96- or 384-well fluorescence plate readers. In the current assay, NIH 3T3/CCK2R cells were seeded in black PolyLysin coated 384 well plates with clear bottom at 14000 cells per well and incubated overnight in 25 μl (per well) Gibco Nut. mix F-12 Glutamax medium with 10% FCS, 1% penicillin and streptomycin and 1 mg/ml […]418). The next day […] dye solution (Ca 5 probe from Molecular Devices, dissolved in HBSS/Hepes buffer pH 7.4 containing 0.1% Ovalbumin, 0.005% Tween 20, 3.5 μM Probenecid, 50 μM PDE inhibitor and 0.2% CaCl2) was added per well and the plate was incubated for 1 hour at room temperature. After incubation, these plates were loaded onto FLIPR Tetra from Molecular Devices together with the sample plates containing dilution series of gastrin analogues in HBSS/Hepes buffer with 30% DMSO. During the assay run, 1 μl sample was transferred from the sample plate to the assay plate. Beside the baseline fluorescence measurement, a second fluorescence measurement was performed after 30 seconds with both measurements using the […] 540 nm/590 nm. For each agonist concentration E=Emax. Emin was calculated. The concentration-response relationship was calculated using a four-parameter logistic model using non linear regression analysis (Prism 5.02, GraphPad Software). In vitro receptor potency of gastrin compounds was measured using Assay (I).
Background: Calcium flux is commonly read through the fluorescence of an indicator in the cells.

The conditions of data set [3]: dog, in vivo; cited from earlier work.
The mark [4] stands for this setting: Table 2: N-terminal acylation/truncation series.

Where two headings read alike, the source gives them in different places. Numbered stars: 1 amine (or outer) side, 2 acyl side, 3 side chain; on linkers, the order of the positions; unused ones are H or OH. Peptide text beside a SMILES is read from it. * marks the point of attachment. C18 diacid = O=C(O)CCCCCCCCCCCCCCCCC(=O)*; γGlu = O=C(O)[C@H](CCC(=O)[*:2])N[*:1]; AEEA = NCCOCCOCC(=O)O

One may read the half-life as the time in which the quantity being followed falls by half. High values mean slow loss, low ones fast loss.

`CC(C)C[C@H](NC(=O)[C@H](Cc1c[nH]c2ccccc12)NC(=O)CNC(=O)[C@H](Cc1ccc(O)cc1)NC(=O)[C@H](C)NC(=O)[C@H](CCC(=O)O)NC(=O)[C@H](CCC(=O)O)NC(=O)[C@H](CCC(=O)O)NC(=O)[C@H](CCC(=O)O)NC(=O)[C@H](CCC(=O)O)NC(=O)[C@H](CC(C)C)NC(=O)[C@H](Cc1c[nH]c2ccccc12)NC(=O)[C@@H]1CCCN1C(=O)CNC(=O)[C@H](CCC(N)=O)NC(=O)COCCOCCNC(=O)COCCOCCNC(=O)CC[C@H](NC(=O)CCCCCCCCCCCCCCCCC(=O)O)C(=O)O)C(=O)N[C@@H](CC(=O)O)C(=O)N[C@@H](Cc1ccccc1)C(N)=O` [N-α-#-[Leu15] Gastrin-17, N-alpha-{2-(2-{2-[2-(2-{2-[4-Carboxy-4-(17-carboxyheptadecanoylamino)butyrylamino]ethoxy}-ethoxy)acetylamino]-ethoxy}ethoxy)acetyl}[Gln1,Leu15] gastrin-17] ({C18 diacid-γGlu-AEEA-AEEA}-QGPWLEEEEEAYGWLDF-NH2): the half-life in data set [1] is 109 ± 26 h. For the same compound, the “Relative Receptor Potency” value is 76 in data set [2] (setting [4]) and 57 in data set [2] (Table 3: acylation position (Lys scan) series).
For the compound `CC(C)C[C@H](NC(=O)[C@H](Cc1c[nH]c2ccccc12)NC(=O)CNC(=O)[C@H](Cc1ccc(O)cc1)NC(=O)[C@H](C)NC(=O)[C@H](CCC(=O)O)NC(=O)[C@H](CCC(=O)O)NC(=O)[C@H](CCC(=O)O)NC(=O)[C@H](CCC(=O)O)NC(=O)COCCOCCNC(=O)COCCOCCNC(=O)CC[C@H](NC(=O)CCCCCCCCCCCCCCCCC(=O)O)C(=O)O)C(=O)N[C@@H](CC(=O)O)C(=O)N[C@@H](Cc1ccccc1)C(N)=O` [N-α-#-[Leu15] Gastrin-17 (7-17), N-alpha-{2-(2-{2-[2-(2-{2-[4-Carboxy-4-(17-carboxyheptadecanoylamino)butyrylamino]ethoxy}-ethoxy)acetylamino]-ethoxy}ethoxy)acetyl}[Leu15] gastrin-17 (7-17)] ({C18 diacid-γGlu-AEEA-AEEA}-EEEEAYGWLDF-NH2), the half-life in data set [1] is around 95 h. Moreover, the “Relative Receptor Potency” value in data set [2] (setting [4]) came to 39.
Turning to `CSCC[C@H](NC(=O)[C@H](Cc1c[nH]c2ccccc12)NC(=O)CNC(=O)[C@H](Cc1ccc(O)cc1)NC(=O)[C@H](C)NC(=O)[C@H](CCC(=O)O)NC(=O)[C@H](CCC(=O)O)NC(=O)[C@H](CCC(=O)O)NC(=O)[C@H](CCC(=O)O)NC(=O)[C@H](CCC(=O)O)NC(=O)[C@H](CC(C)C)NC(=O)[C@H](Cc1c[nH]c2ccccc12)NC(=O)[C@@H]1CCCN1C(=O)CNC(=O)[C@H](CCC(N)=O)NC(=O)COCCOCCNC(=O)COCCOCCNC(=O)CC[C@H](NC(=O)CCCCCCCCCCCCCCCCC(=O)O)C(=O)O)C(=O)N[C@@H](CC(=O)O)C(=O)N[C@@H](Cc1ccccc1)C(N)=O` [N-alpha-#-gastrin-17, N-alpha-{2-(2-{2-[2-(2-{2-[4-Carboxy-4-(17-carboxyheptadecanoylamino)butyrylamino]ethoxy}-ethoxy)acetylamino]-ethoxy}ethoxy)acetyl}[Gln1] gastrin-17 (A)], the half-life in data set [1] is 64 ± 6 h.
In data set [1], `CC(C)C[C@H](NC(=O)[C@H](Cc1c[nH]c2ccccc12)NC(=O)CNC(=O)[C@H](Cc1ccc(O)cc1)NC(=O)[C@H](C)NC(=O)[C@H](CCC(=O)O)NC(=O)[C@H](CCC(=O)O)NC(=O)[C@H](CCC(=O)O)NC(=O)[C@H](CCC(=O)O)NC(=O)[C@H](CCC(=O)O)NC(=O)[C@H](CC(C)C)NC(=O)[C@H](Cc1c[nH]c2ccccc12)NC(=O)COCCOCCNC(=O)COCCOCCNC(=O)CC[C@H](NC(=O)CCCCCCCCCCCCCCCCC(=O)O)C(=O)O)C(=O)N[C@@H](CC(=O)O)C(=O)N[C@@H](Cc1ccccc1)C(N)=O` [N-α-#-[Leu15] Gastrin-17 (4-17), N-alpha-{2-(2-{2-[2-(2-{2-[4-Carboxy-4-(17-carboxyheptadecanoylamino)butyrylamino]ethoxy}-ethoxy)acetylamino]-ethoxy}ethoxy)acetyl}[Leu15] gastrin-17 (4-17)] ({C18 diacid-γGlu-AEEA-AEEA}-WLEEEEEAYGWLDF-NH2) showed a half-life of 95 h. In addition, in data set [2] (setting [4]), the “Relative Receptor Potency” value was determined as 58.
`CSCC[C@H](NC(=O)[C@H](Cc1c[nH]c2ccccc12)NC(=O)CNC(=O)[C@H](Cc1ccc(O)cc1)NC(=O)[C@H](C)NC(=O)[C@H](CCC(=O)O)NC(=O)[C@H](CCC(=O)O)NC(=O)[C@H](CCC(=O)O)NC(=O)[C@H](CCC(=O)O)NC(=O)[C@H](CCC(=O)O)NC(=O)[C@H](CC(C)C)NC(=O)[C@H](Cc1c[nH]c2ccccc12)NC(=O)[C@@H]1CCCN1C(=O)CNC(=O)[C@@H](N)CCC(N)=O)C(=O)N[C@@H](CC(=O)O)C(=O)N[C@@H](Cc1ccccc1)C(N)=O` [gastrin-17, reference compound] showed a half-life in data set [1] of 0.058 ± 0.007 h. Moreover, the half life in data set [3] was 2 to 8 min.

Source of the values: US9040660B2, “Long-acting gastrin derivatives” (priority 2010, dated 2015).
